The results in this text go back to patent US11472791B2 (Incyte Corporation, priority 2019, dated 2022).

What is called IC50 is the concentration at which inhibition is half-maximal.

For experiment [1], the system named is Rb phosphorylated on serine 780 in CCNE1 amplified COV318 cells. Briefly: CDK2 pRb (S780) HTRF cellular assay. The note with it: Homo sapiens, read-out: IC50 in p-RB S780 HTRF cellular assay. Type of experiment: cell-based.
Another experiment concerns COV318 cells. Briefly: Cell cycle analysis by FACS after p16 knockdown. The following applies: 100 nM, 16 hours. Type of experiment: cell-based, human. The protocol: To confirm the role of p16 in CDK2-sensitivity of CCNE1-amplified cells, COV318 cells were treated with control or p16-specific siRNA.
Bulk DNA was stained with DAPI. Compound-treated and DMSO treated control cells were acquired with CytoFlex (Beckman Coulter) and were analyzed using the FlowJo software. For cell cycle analysis of cells with siRNA knockdown, 72 hours after siRNA transfection, cells exposed to 10 μM EdU for 3 hours before detection of Click-iT Alexa Fluor® 647 azide kit.
On the technique in general: In flow cytometry, cells or beads pass a laser one at a time.

For the next experiment, the target named is CDK2/Cyclin E1 (Homo sapiens (Human), UniProt P24941). The experiment is described as follows: CDK2/Cyclin E1 HTRF enzyme activity assay. In kind it is biochemical. The note with it: 1 mM ATP. The protocol:
Assays are conducted in white 384-well polystyrene plates in a final reaction volume of 8 μL. […] HTRF signals are read after 1 hour at room temperature on a PHERAstar FS plate reader (BMG Labtech). Data is analyzed with IDBS XLFit and GraphPad Prism 5.0 software using a three or four parameter dose response curve to determine IC50 for each compound.
For orientation: Time-resolved FRET reads energy transfer from a long-lived donor to a nearby acceptor.

The target in a further experiment is human JAK1 (Homo sapiens, UniProt P23458). The experiment is described as follows: JAK inhibitory activity assay (JAK1). The note with it: 1 mM ATP. Type of experiment: biochemical. The protocol:
(§1) Compounds herein were tested for inhibitory activity of JAK targets according to the following in vitro assay described in Park et al., Analytical Biochemistry 1999, 269, 94-104. The catalytic domains of human JAK1 (a.a. 837-1142), Jak2 (a.a. 828-1132) and Jak3 (a.a. 781-1124) with an N-terminal His tag were expressed using baculovirus in insect cells and purified. The catalytic activity of JAK1 and JAK2 was assayed by measuring the phosphorylation of a biotinylated peptide. The phosphorylated peptide was detected by homogenous time resolved fluorescence (HTRF). Each enzyme reaction was carried out with or without test compound (11-point dilution), JAK enzyme, 500 nM peptide, adenosine triphosphate (ATP; 1 mM), and 2.0% dimethyl sulfoxide (DMSO) in assay buffer (50 mM Tris (pH 7.8) buffer, 100 mM NaCl, 5 mM DTT, and 0.1 mg/mL (0.01%) BSA). The peptide substrate (Biotin-[…]) was custom synthesized by Biosource International. Reactions were carried out at room temperature for 1 hour and then stopped with 10 μL 45 mM EDTA, 200 nM SA-APC, 4 nM Eu-Py20 in assay buffer (Perkin Elmer, Boston, Mass.). After incubation for 30 minutes at room temperature, the HTRF signal was measured on a PheraStar plate reader.

For a further experiment, the target named is JAK2 (Homo sapiens (Human), UniProt O60674). The experiment is described as follows: JAK inhibitory activity assay (JAK2). In kind it is biochemical. The following applies: 1 mM ATP. As for the experimental part:
as §1

JAK2, sequence (O60674 828-1132): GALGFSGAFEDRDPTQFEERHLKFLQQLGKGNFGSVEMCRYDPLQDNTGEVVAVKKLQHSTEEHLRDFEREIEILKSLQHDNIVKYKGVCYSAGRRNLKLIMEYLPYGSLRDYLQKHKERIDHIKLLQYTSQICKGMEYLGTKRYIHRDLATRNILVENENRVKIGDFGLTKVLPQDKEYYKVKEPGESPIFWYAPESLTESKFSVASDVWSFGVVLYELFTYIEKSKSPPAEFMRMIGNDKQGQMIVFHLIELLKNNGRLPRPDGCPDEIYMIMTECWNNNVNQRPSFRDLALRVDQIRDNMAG

For the compound `C[C@@]1(O)CCC[C@H]1n1c(=O)ccc2cnc(NC3CCN(S(C)(=O)=O)CC3)nc21` [Compound A, 8-((1R,2R)-2-hydroxy-2-methylcyclopentyl)-2-((1-(methylsulfonyl)piperidin-4-yl)amino)pyrido[2,3-d]pyrimidin-7(8H)-one], the half-maximal inhibitory concentration (IC50) in experiment [1] turned out to be 0.037 µM. The “percentage of S phase cells” value was “significantly decreased” in the experiment with COV318 cells (control siRNA-treated COV318 cells) and “not significantly decreased” in the experiment on COV318 cells (p16 knocked down COV318 cells, compared to DMSO).
`CS(=O)(=O)N1CCC(Nc2ncc(C(F)(F)F)c(-c3cnn(CC(F)(F)F)c3)n2)CC1` [Example 10, N-(1-(Methylsulfonyl)piperidin-4-yl)-4-(1-(2,2,2-trifluoroethyl)-1H-pyrazol-4-yl)-5-(trifluoromethyl)pyrimidin-2-amine]: the IC50 at CDK2/Cyclin E1 was less than 0.05 µM; at human JAK1 it was no less than 10 µM; at JAK2, no less than 10 µM.
With `CN1CCC(n2cc(-c3nc(NC4CCN(S(C)(=O)=O)CC4)ncc3C(F)(F)F)cn2)CC1` [Example 11, 4-(1-(1-Methylpiperidin-4-yl)-1H-pyrazol-4-yl)-N-(1-(methylsulfonyl)piperidin-4-yl)-5-(trifluoromethyl)pyrimidin-2-amine], the half-maximal inhibitory concentration (IC50) against CDK2/Cyclin E1 is less than 0.05 µM; at human JAK1, no less than 10 µM; against JAK2 it was no less than 10 µM.
On to `CNCc1ccc(-n2cc(-c3nc(NC4CCN(S(C)(=O)=O)CC4)ncc3C(F)(F)F)cn2)c(C)c1` [Example 41, 4-(1-(2-Methyl-4-((methylamino)methyl)phenyl)-1H-pyrazol-4-yl)-N-(1-(methylsulfonyl)piperidin-4-yl)-5-(trifluoromethyl)pyrimidin-2-amine], for which the IC50 against CDK2/Cyclin E1 is less than 0.05 µM; on human JAK1 it was no less than 10 µM; against JAK2, no less than 10 µM.
`CO[C@H]1CC[C@H](n2cc(-c3nc(NC4CCN(S(=O)(=O)c5cn(C)cn5)CC4)ncc3C(F)(F)F)cn2)CC1` [Example 42, 4-(1-((1r,4r)-4-Methoxycyclohexyl)-1H-pyrazol-4-yl)-N-(1-((1-methyl-1H-imidazol-4-yl)sulfonyl)piperidin-4-yl)-5-(trifluoromethyl)pyrimidin-2-amine]: the figures for the IC50 against CDK2/Cyclin E1, on human JAK1 and at JAK2 were less than 0.05 µM, no less than 5 µM and no less than 5 µM, respectively.
As to `C[C@]1(N)C[C@@H](n2cc(-c3nc(NC4CCN(S(=O)(=O)C5CC5)CC4)ncc3C(F)(F)F)cn2)C1` [Example 44, 4-(1-((1s,3s)-3-Amino-3-methylcyclobutyl)-1H-pyrazol-4-yl)-N-(1-(cyclopropylsulfonyl)piperidin-4-yl)-5-(trifluoromethyl)pyrimidin-2-amine], the values for the IC50 against CDK2/Cyclin E1, against human JAK1 and at JAK2 were less than 0.05 µM, no less than 10 µM and no less than 10 µM, respectively.
Turning to `CC(C)(O)Cn1cc(-c2nc(NC3CCN(S(=O)(=O)C4CC4)CC3)ncc2C(F)(F)F)cn1` [Example 51, 1-(4-(2-((1-(Cyclopropylsulfonyl)piperidin-4-yl)amino)-5-(trifluoromethyl)pyrimidin-4-yl)-1H-pyrazol-1-yl)-2-methylpropan-2-ol], the IC50 against CDK2/Cyclin E1 was less than 0.05 µM; against human JAK1, no less than 10 µM; against JAK2 it was no less than 10 µM.
As to `CC(C)(O)Cn1cc(-c2nc(NC3CCN(S(=O)(=O)C4CC4)CC3)ncc2C#N)cn1` [Example 54, 2-((1-(Cyclopropylsulfonyl)piperidin-4-yl)amino)-4-(1-(2-hydroxy-2-methylpropyl)-1H-pyrazol-4-yl)pyrimidine-5-carbonitrile], the values for the IC50 against CDK2/Cyclin E1, against human JAK1 and against JAK2 were less than 0.05 µM, no less than 10 µM and no less than 10 µM, respectively.
With `CC(C)(C(N)=O)n1cc(-c2nc(NC3CCN(S(=O)(=O)c4ccccn4)CC3)ncc2C(F)(F)F)cn1` [Example 96, 2-Methyl-2-(4-(2-((1-(pyridin-2-ylsulfonyl)piperidin-4-yl)amino)-5-(trifluoromethyl)pyrimidin-4-yl)-1H-pyrazol-1-yl)propanamide], the IC50 against CDK2/Cyclin E1 was less than 0.05 µM; against human JAK1 it was no less than 10 µM; against JAK2, no less than 10 µM.
`CN1CCN(Cc2ccc(-n3cc(-c4nc(NC5CCN(S(C)(=O)=O)CC5)ncc4C#N)cn3)c(Cl)c2)CC1` [Example 99, 4-(1-(2-Chloro-4-((4-methylpiperazin-1-yl)methyl)phenyl)-1H-pyrazol-4-yl)-2-((1-(methylsulfonyl)piperidin-4-yl)amino)pyrimidine-5-carbonitrile]: the results for the IC50 on CDK2/Cyclin E1, on human JAK1 and at JAK2 were less than 0.05 µM, no less than 10 µM and no less than 10 µM, respectively.
